Each structure is given as a SMILES string. In brackets after ≈: the same amount, converted by molar mass.

The experiment concerns rhinovirus B14. Nature of the experiment: Antiviral activity against HRV-14. Type of experiment: functional, organism-based. The settings on record: Rhinovirus B.
One may read the EC50 as the concentration at which the effect is half-maximal. Regarding `CCOc1nc2cc(OCCC3CCN(c4ccc(C)nn4)CC3)ccc2o1`, the response was half-maximal at 0.032 µg/mL (≈ 0.0837 µM) (EC50).
As to `CCOC(=O)c1ccc(OCCC2CCN(c3ccc(C)nn3)CC2)cc1` [PIRODAVIR], the EC50 came to 0.0032 µg/mL (≈ 0.00866 µM).
As for `Cc1cc(CCCOc2c(C)cc(-c3noc(C(F)(F)F)n3)cc2C)on1` [PLECONARIL], the midpoint of the response, the EC50, lay at 0.03 µg/mL (≈ 0.0787 µM).

(Values after ChEMBL document CHEMBL1667776, “Pharmacophore-based design, synthesis, and biological evaluation of novel chloro-pyridazine piperazines as human rhinovirus (HRV-3) inhibitors” (Bioorg Med Chem Lett, 2011).)
